From patent publication US8980077B2, “Plating bath and method” (Rohm and Haas Electronic Materials LLC, priority 2012, dated 2015)
Converted amounts (≈) assume the structure as drawn.

How the values were obtained:
[1] = Solubility in 17% methane sulfonic acid (MSA)/DI water solution; conditions: aqueous with cosolvent or surfactant or cyclodextrin, thermodynamic from solid
Procedure: (§2) If a compound dissolved, then an additional 25 mg (in increments) of that compound was added until either no more would dissolve or 250 mg were dissolved in the 5 mL.

[2] = Stability in 17% MSA/water at 50° C., visual inspection for precipitation; conditions: for Stability (at 50° C.): 5 mg in 1 mL 17% MSA/water, time without precipitation; for Stability compared with Comparatives 1 and 2: 17% MSA/water
Procedure: The stability of various compounds was determined as follows: 5 mg of a compound was dissolved into 1 mL of 17% MSA/water solution and placed in a glass vial. Each vial was capped and placed in a dry heating bath at 50° C. for up to three weeks. Each sample was periodically removed from the bath and visually inspected for evidence of precipitation.

[3] = physchem; conditions: aqueous with cosolvent or surfactant or cyclodextrin, thermodynamic from solid
Procedure: as §2

[4] = Stability Test 1: DI water solution plus aqueous MSA (70%), 50° C. oven, visual inspection for precipitate; format: physicochemical; conditions: 5.96 mg/mL in DI water plus aqueous MSA (70%)
Procedure: (§1) The stability of Compound 6 and Comparative 1 were determined using 2 different tests. In Test 1, solutions of each of Compound 6 and Comparative 1 dissolved in DI water (at a concentration of 5.96 mg/mL) were placed in separate vials. To each vial was added aqueous MSA (70%), the vials were then capped, placed in a 50° C. oven, and periodically visually inspected for the formation of precipitate. […] In Test 2, solutions of each of Compound 6 and Comparative 1 dissolved in D2O (at a concentration of 5.96 mg/mL) were placed in separate NMR tubes. A ^1H NMR (400 MHz) spectrum was obtained for each solution. Next, a solution of MSA (70%) dissolved in D2O was prepared and added to each NMR tube. A second ^1H NMR spectrum was immediately taken of each sample. Next, the NMR tubes were placed in a 50° C. oven, and periodically removed, analyzed by ^1H NMR, and returned to the oven.

[5] = Stability Test 2: D2O solution plus MSA (70%), 50° C. oven, 1H NMR; format: physicochemical
Procedure: as §1

[6] = Extended storage or long-term use in tin-silver electroplating bath (prior-art complexers); format: physicochemical
Text: U.S. Pat. No. 6,998,036 discloses an acidic tin-silver alloy electroplating bath containing a certain sulfide or thiol-substituted ether compound.
U.S. Pat. No. 7,628,903 discloses conventional silver and silver-alloy electroplating baths containing certain sulfide compounds. This patent purports that these electroplating baths have good stability.

Row | Compound | solubility [1] | Stability (at 50° C.) [2] | further results
1 | NC(=O)CCSCCSCCC(N)=O [Compound 1, 3,3′-(Ethane-1,2-diylbis(sulfanediyl))dipropanamide] | < 5 mg/mL | – | –
2 | O=C(O)CSCCCSCC(=O)O [Compound 10, 2,2′-(Propane-1,3-diylbis(sulfanediyl))diacetic acid] | > 50 mg/mL | >3 weeks | –
3 | O=S(=O)(O)CCCSCCSCCCS(=O)(=O)O [Compound 5, 3,3′-(ethane-1,2-diylbis(sulfanediyl))bis(propane-1-sulfonic acid)] | > 60 mg/mL | – | –
4 | OCCCSCSCCCO [Compound 7, 3,3′-(Methylenebis(sulfanediyl))dipropanol] | > 50 mg/mL | >3 weeks | Stability compared with Comparatives 1 and 2 [2]: significantly better
5 | O=C(O)CSCSCC(=O)O [Compound 8, 2,2′-(Methylenebis(sulfanediyl))diacetic acid] | > 50 mg/mL | >3 weeks | –
6 | O=C(O)CC(SCSC(CC(=O)O)C(=O)O)C(=O)O (stereo not drawn) [Compound 9, 2,2′-(Methylenebis(sulfanediyl))disuccinic acid] | ~10 mg/mL (≈ 32 mM) | >3 weeks | –
7 | OCCCSCCSCCCO [Compound 6, 3,3′-[1,2-Ethanediylbis(thio)]bis-1-propanol] | – | >3 weeks | solubility [3]: 5 mg/mL (≈ 23.8 mM); Stability compared with Comparatives 1 and 2 [2]: significantly better; Formation of precipitate (Test 1, visual inspection) ([4]; after 120 hours): no precipitate formation; Change of 1H NMR spectrum (Test 2) ([5]; 5.96 mg/mL in D2O plus MSA (70%), 50° C., after 7 days): no change in the ^1H NMR spectrum
8 | O=C(O)CCSCCSCCC(=O)O [Compound 2, 3,3′-(Ethane-1,2-diylbis(sulfanediyl))dipropanoic acid] | < 5 mg/mL | – | –
9 | O=C(O)CSCCSCC(=O)O [Compound 3, 2,2′-(Ethane-1,2-diylbis(sulfanediyl))diacetic acid] | 30 mg/mL (≈ 143 mM) | – | –
10 | O=S(=O)(O)CCCSCCCSCCCS(=O)(=O)O [Compound 12, 3,3′-(Propane-1,3-diylbis(sulfanediyl))dipropyl sulfonate] | > 50 mg/mL | >3 weeks | –
11 | O=S(=O)(O)CCSCCSCCS(=O)(=O)O [Compound 4, 2,2′-(Ethane-1,2-diylbis(sulfanediyl))diethanesulfonic acid] | > 60 mg/mL | – | –
12 | OCCSCSCCO [Comparative 2, 2,2′-(Methylenebis(sulfanediyl))diethanol, reference compound] | > 50 mg/mL | <1 week | –
13 | OCCSCCSCCO [Comparative 1, 2,2′-[1,2-ethanediylbis(thio)]bis-ethanol, reference compound] | 30 to 35 mg/mL (≈ 165 to 192 mM) | <24 h | Behaviour upon extended storage or long term use in the electroplating bath [6]: polymerize; Formation of precipitate (Test 1, visual inspection) ([4]; after 60 hours): a copious amount of a white, flocculent precipitate; Change of 1H NMR spectrum (Test 2) ([5]; 5.96 mg/mL in D2O, immediately upon addition of the MSA solution): loss of the ^1H NMR spectrum
14 | O=S(=O)(O)CCSCCCSCCS(=O)(=O)O [Compound 11, 2,2′-(Propane-1,3-diylbis(sulfanediyl))diethyl sulfonate] | > 50 mg/mL | >3 weeks | –
